Read-outs that look alike come from different tables or passages of the source.
What was measured:
A549 = assay: Cell-based assay, anti-proliferative activity (Cell Counting Kit-8, 72 hours); conditions: Homo sapiens; A549 cells, Cell Counting Kit-8, 72 hours; read-out: IC50 (μM) A549
How it was run: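 Seed cells in 96-well format; add inhibitors; measure growth by CCK-8 at end of exposure; derive IC50.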

HFL1 = assay: as above; conditions: Homo sapiens; HFL1 cells, Cell Counting Kit-8, 72 hours; read-out: IC50 (μM) HFL1
How it was run: (§1)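 CCK-8 viability read 72 h after compound exposure over an 8-point series from 1.5625 to 100 micro-M plus zero. Seeding density 2,000–3,000 cells/well; IC50 from the dilution series.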

CCD-18Co = assay: as above; conditions: Homo sapiens; CCD-18Co cells, Cell Counting Kit-8, 72 hours; read-out: IC50 (μM) CCD-18Co
How it was run: as §1

PC14 = assay: as above; conditions: Homo sapiens, PC-14; PC14 cells, Cell Counting Kit-8, 72 hours; read-out: IC50 (μM) PC14
How it was run: as §1

HCT-116 = assay: as above; conditions: Homo sapiens; HCT-116 cells, Cell Counting Kit-8, 72 hours; read-out: IC50 (μM) HCT-116
How it was run: as §1

SUV39H2 [1] = molecular target: T1, SUV39H2 (Homo sapiens (Human), UniProt Q9H5I1); assay: biochemical
T1 sequence (Q9H5I1 whole entry): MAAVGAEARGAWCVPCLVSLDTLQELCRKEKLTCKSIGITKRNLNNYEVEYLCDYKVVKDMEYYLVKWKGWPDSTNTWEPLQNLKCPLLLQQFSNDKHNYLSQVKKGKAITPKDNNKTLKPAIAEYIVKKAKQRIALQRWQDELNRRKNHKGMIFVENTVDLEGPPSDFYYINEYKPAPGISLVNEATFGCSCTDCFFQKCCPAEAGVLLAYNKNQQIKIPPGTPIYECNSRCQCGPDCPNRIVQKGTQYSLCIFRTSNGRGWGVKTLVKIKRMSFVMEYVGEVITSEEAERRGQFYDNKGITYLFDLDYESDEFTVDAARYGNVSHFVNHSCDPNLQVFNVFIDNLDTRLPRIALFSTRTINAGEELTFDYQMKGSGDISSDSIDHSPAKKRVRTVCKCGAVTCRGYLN

SUV39H2 [2] = molecular target: T1, SUV39H2; conditions: read-out: IC50 (μM) Suv 39H2 assay; enzyme assay

Compound	IC50 (A549) [µM]	IC50 (HFL1) [µM]	IC50 (CCD-18Co) [µM]	IC50 (PC14) [µM]	IC50 (HCT-116) [µM]	IC50 (SUV39H2 [1]) [µM]	IC50 (SUV39H2 [2]) [µM]
CCCS(=O)(=O)NC1CCN(c2ccn3cc(-c4cc(Cl)c(OC)cc4OC)nc3n2)CC1 [Example 193, N-(1-(2-(5-chloro-2,4-dimethoxyphenyl)imidazo[1,2-a]pyrimidin-7-yl)-piperidin-4-yl)propane-1-sulfonamide]	10	10	10	6.7	10	0.0327	–
COc1cc(OC)c(-c2cn3ccc(N4CCN(C(C)C)CC4)cc3n2)cc1Cl [Example 100, 2-(5-chloro-2,4-dimethoxyphenyl)-7-(4-isopropylpiperazin-1-yl)imidazo-[1,2-a]pyridine]	5.6	3.2	5.8	–	3.2	0.0154	0.0136

Reference: patent publication US10508109B2 (priority 2015, dated 2019)
